± gives the expanded uncertainty stated by the source.
Assay: molar heat capacity at constant pressure; xn = mol fraction of the nth substance listed
Details: 101 kPa, Liquid

CNCCO [2-(methylamino)ethanol] + O
molar heat capacity at constant pressure [J/K/mol]
Details	x1 = 0.1	x1 = 0.1998	x1 = 0.3003	x1 = 0.399	x1 = 0.5002	x1 = 0.6061	x1 = 0.6987	x1 = 0.8003	x1 = 0.9004	x1 = 1
303.15 K	96 ± 1	108 ± 1	119 ± 1	129 ± 1	139 ± 1	151 ± 1	160 ± 1	172 ± 2	182 ± 2	194 ± 2
308.15 K	98 ± 1	111 ± 1	122 ± 1	132 ± 1	143 ± 1	155 ± 1	165 ± 1	176 ± 2	187 ± 2	199 ± 2
313.15 K	99 ± 1	113 ± 1	124 ± 1	135 ± 1	146 ± 1	157 ± 1	167 ± 1	178 ± 2	189 ± 2	200 ± 2
318.15 K	100 ± 1	114 ± 1	126 ± 1	137 ± 1	148 ± 1	160 ± 1	170 ± 2	180 ± 2	190 ± 2	202 ± 2
323.15 K	101 ± 1	116 ± 1	128 ± 1	139 ± 1	150 ± 1	162 ± 1	172 ± 2	183 ± 2	192 ± 2	203 ± 2
328.15 K	103 ± 1	118 ± 1	131 ± 1	142 ± 1	153 ± 1	165 ± 1	175 ± 2	185 ± 2	195 ± 2	205 ± 2
333.15 K	105 ± 1	121 ± 1	134 ± 1	145 ± 1	157 ± 1	168 ± 1	178 ± 2	188 ± 2	197 ± 2	206 ± 2
338.15 K	107 ± 1	124 ± 1	138 ± 1	149 ± 1	161 ± 1	172 ± 2	182 ± 2	191 ± 2	199 ± 2	207 ± 2
343.15 K	110 ± 1	127 ± 1	141 ± 1	153 ± 1	164 ± 1	176 ± 2	185 ± 2	194 ± 2	201 ± 2	208 ± 2
348.15 K	114 ± 1	132 ± 1	146 ± 1	158 ± 1	169 ± 1	181 ± 2	190 ± 2	198 ± 2	205 ± 2	210 ± 2
353.15 K	119 ± 1	138 ± 1	152 ± 1	163 ± 1	174 ± 2	186 ± 2	195 ± 2	203 ± 2	208 ± 2	212 ± 2

NCCCO [3-amino-1-propanol] + O
molar heat capacity at constant pressure [J/K/mol]
Details	x1 = 0.0999	x1 = 0.2001	x1 = 0.3003	x1 = 0.4015	x1 = 0.4996	x1 = 0.6006	x1 = 0.7003	x1 = 0.8003	x1 = 0.8966	x1 = 1
303.15 K	94 ± 1	108 ± 1	120 ± 1	131 ± 1	143 ± 1	155 ± 1	168 ± 1	180 ± 2	193 ± 2	204 ± 2
308.15 K	96 ± 1	111 ± 1	123 ± 1	135 ± 1	147 ± 1	159 ± 1	171 ± 2	184 ± 2	196 ± 2	207 ± 2
313.15 K	97 ± 1	112 ± 1	124 ± 1	136 ± 1	148 ± 1	160 ± 1	172 ± 2	185 ± 2	197 ± 2	208 ± 2
318.15 K	98 ± 1	113 ± 1	126 ± 1	138 ± 1	150 ± 1	162 ± 1	173 ± 2	186 ± 2	198 ± 2	208 ± 2
323.15 K	99 ± 1	115 ± 1	128 ± 1	140 ± 1	152 ± 1	163 ± 1	175 ± 2	187 ± 2	199 ± 2	209 ± 2
328.15 K	101 ± 1	117 ± 1	130 ± 1	142 ± 1	154 ± 1	166 ± 1	177 ± 2	189 ± 2	200 ± 2	210 ± 2
333.15 K	103 ± 1	119 ± 1	132 ± 1	145 ± 1	157 ± 1	169 ± 1	179 ± 2	191 ± 2	202 ± 2	211 ± 2
338.15 K	106 ± 1	122 ± 1	135 ± 1	148 ± 1	160 ± 1	172 ± 2	182 ± 2	193 ± 2	204 ± 2	213 ± 2
343.15 K	110 ± 1	126 ± 1	139 ± 1	151 ± 1	163 ± 1	175 ± 2	185 ± 2	196 ± 2	206 ± 2	214 ± 2
348.15 K	114 ± 1	130 ± 1	143 ± 1	155 ± 1	167 ± 1	179 ± 2	188 ± 2	198 ± 2	208 ± 2	216 ± 2
353.15 K	119 ± 1	135 ± 1	147 ± 1	160 ± 1	172 ± 2	183 ± 2	192 ± 2	201 ± 2	210 ± 2	217 ± 2

NCCNCCO [N-(2-aminoethyl)ethanolamine] + O
molar heat capacity at constant pressure [J/K/mol]
Details	x1 = 0.0999	x1 = 0.1999	x1 = 0.2995	x1 = 0.4	x1 = 0.5002	x1 = 0.5997	x1 = 0.7011	x1 = 0.8003	x1 = 0.8979	x1 = 1
303.15 K	100 ± 1	121 ± 1	141 ± 1	161 ± 1	181 ± 2	201 ± 2	221 ± 2	240 ± 2	258 ± 2	279 ± 2
308.15 K	103 ± 1	125 ± 1	145 ± 1	165 ± 1	185 ± 2	205 ± 2	226 ± 2	245 ± 2	263 ± 2	284 ± 2
313.15 K	104 ± 1	127 ± 1	147 ± 1	167 ± 1	187 ± 2	207 ± 2	227 ± 2	247 ± 2	265 ± 2	285 ± 2
318.15 K	106 ± 1	129 ± 1	150 ± 1	170 ± 2	190 ± 2	209 ± 2	229 ± 2	249 ± 2	266 ± 2	286 ± 2
323.15 K	107 ± 1	131 ± 1	152 ± 1	172 ± 2	192 ± 2	211 ± 2	231 ± 2	250 ± 2	267 ± 2	287 ± 2
328.15 K	110 ± 1	134 ± 1	155 ± 1	175 ± 2	195 ± 2	214 ± 2	233 ± 2	252 ± 2	269 ± 2	289 ± 2
333.15 K	112 ± 1	137 ± 1	158 ± 1	178 ± 2	197 ± 2	216 ± 2	235 ± 2	254 ± 2	271 ± 2	290 ± 2
338.15 K	116 ± 1	141 ± 1	162 ± 1	181 ± 2	201 ± 2	219 ± 2	238 ± 2	257 ± 2	273 ± 2	292 ± 2
343.15 K	120 ± 1	146 ± 1	167 ± 1	185 ± 2	204 ± 2	223 ± 2	241 ± 2	260 ± 2	275 ± 2	293 ± 2
348.15 K	124 ± 1	152 ± 1	172 ± 2	189 ± 2	208 ± 2	227 ± 2	244 ± 2	262 ± 2	277 ± 2	295 ± 2
353.15 K	130 ± 1	158 ± 1	177 ± 2	194 ± 2	213 ± 2	231 ± 2	248 ± 2	265 ± 2	279 ± 2	296 ± 2

Reference: the NIST ThermoML archive (doi:10.1021/je0604232)
